Data from patent US20230021448A1, “COMPOUNDS AND COMPOSITIONS FOR TREATING CONDITIONS ASSOCIATED WITH STING ACTIVITY” (IFM Due, Inc., priority 2019, published 2023).
pEC50: −log10 of the molar value.

Target: T1, STING (Homo sapiens, UniProt Q86WV6, G230A/H232R/R293Q/R71H)
T1 construct: host or cells: THP1-Dual KO-IFNAR2 cells
Assay: STING reporter assay: luciferase reporter activity in THP1-Dual KO-IFNAR2 cells stimulated with 2'3'cGAMP
Format: cell-based
Conditions: 2′3′cGAMP 15 μM final, 24h, read-out: hSTING: EC50
Method: STING pathway activation by the compounds described herein was measured using THIP1-Dua1™ cells (KO-IFNAR2).
TTIP1-Dual™ KO-IFNAR2 Cells (obtained from invivogen) were maintained in RPMI, 10% FCS, 5 ml P/S, 2 mM L-glut, 10 mM Hepes, and 1 mM sodium pyruvate. Compounds were spotted in empty 384 well tissue culture plates (Greiner 781182) by Echo for a final concentration of 0.0017-100 μM. Cells were plated into the TC plates at 40 μL per well, 2×10E6 cells/mL. For activation with STING ligand, 2′3′cGAMP (MW 718.38, obtained from Invivogen), was prepared in Optimem media.
The following solutions were prepared for each 1×384 plate: • Solution A: 2 mL Optimem with one of the following stimuli: • […] • Solution B: 2 mL Optimem with 60 μL Lipofectamine 2000->Incubate 5 min at RT
2 mL of solution A and 2 ml Solution B was mixed and incubated for 20 min at room temperature (RT). 20 uL of transfection solution (A+B) was added on top of the plated cells, with a final 2′3′cGAMP concentration of 15 μM. The plates were then centrifuged immediately at 340 g for 1 minute, after which they were incubated at 37° C., 5% C02, >98% humidity for 24h. Luciferase reporter activity was then measured. EC50 values were calculated by using standard methods known in the art.
Luciferase reporter assay: 10 μL of supernatant from the assay was transferred to white 384-plate with flat bottom and squared wells. One pouch of QUANTI-Luc™ Plus was dissolved in 25 mL of water. 100 μL of QLC Stabilizer per 25 mL of QUANTI-Luc™ Plus solution was added. 50 μL of QUANTI-Luc™ Plus/QLC solution per well was then added. Luminescence was measured on a Platereader (e.g., Spectramax I3X (Molecular Devices GF3637001)).
Luciferase reporter activity was then measured. EC50 values were calculated by using standard methods known in the art.

T1 sequence (Q86WV6 whole entry R71H/G230A/H232R/R293Q): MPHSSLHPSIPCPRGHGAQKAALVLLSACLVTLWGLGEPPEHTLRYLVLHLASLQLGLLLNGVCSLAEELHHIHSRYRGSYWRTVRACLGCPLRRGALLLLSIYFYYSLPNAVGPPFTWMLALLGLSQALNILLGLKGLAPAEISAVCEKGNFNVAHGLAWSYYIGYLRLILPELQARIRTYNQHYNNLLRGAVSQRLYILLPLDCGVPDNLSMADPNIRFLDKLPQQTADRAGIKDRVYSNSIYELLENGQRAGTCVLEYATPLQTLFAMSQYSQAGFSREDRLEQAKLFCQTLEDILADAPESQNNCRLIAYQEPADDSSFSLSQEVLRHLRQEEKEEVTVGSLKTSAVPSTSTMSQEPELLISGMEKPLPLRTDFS

Structure (SMILES) | pEC50
O=C(Nc1cccc(C(F)(F)F)c1)C(=O)Nc1c[nH]c2cc(F)c(F)cc12 [Compound 102] | 6.00 to 6.70
CC(C)(O)c1cccc(-c2ccc3[nH]cc(NC(=O)C(=O)NCc4ccc(C(F)(F)F)c(Cl)c4)c3c2)c1 [Compound 340] | 5.30 to 6.00
O=C(NCCc1ccc(C(F)(F)F)cn1)C(=O)Nc1c[nH]c2cc(F)c(F)cc12 [Compound 269, N-(5,6-difluoro-1H-indol-3-yl)-N′-{2-[5-(trifluoromethyl)pyridin-2-yl]ethyl}ethanediamide] | 6.00 to 6.70
O=C(Nc1ccc(C(F)(F)F)cc1)C(=O)Nc1c[nH]c2ccccc12 [Compound 116, N1-(1H-indol-3-yl)-N2-(4-(trifluoromethyl)phenyl)oxalamide] | 6.00 to 6.70
O=C(NCC1CCc2ccccc2O1)C(=O)Nc1c[nH]c2cc(F)c(F)cc12 (stereo not drawn) [Compound 145, N-(chroman-2-ylmethyl)-N2-(5,6-difluoro-1H-indol-3-yl)oxalamide] | 6.00 to 6.70
O=C(NCc1cccc(OC(F)(F)F)c1)C(=O)Nc1c[nH]c2cc(F)c(F)cc12 [Compound 166, N1-(5,6-difluoro-1H-indol-3-yl)-N2-(3-(trifluoromethoxy)benzyl)oxalamide] | 6.00 to 6.70
O=C(Nc1c[nH]c2cc(F)c(F)cc12)C(=O)N[C@H]1CC[C@@H](Oc2ccc(C(F)(F)F)nc2)CC1 [Compound 222] | 6.00 to 6.70
CC(CN(C)c1ccccn1)NC(=O)C(=O)Nc1c[nH]c2cc(F)c(F)cc12 (stereo not drawn) [Compound 284] | 5.30 to 6.00
O=C(NCc1ccc(Cl)c(C(F)(F)F)n1)C(=O)Nc1c[nH]c2cc(F)c(F)cc12 [Compound 334] | 6.00 to 6.70
Cc1ccc(O[C@H]2C[C@H](NC(=O)C(=O)Nc3c[nH]c4cc(F)c(F)cc34)C2)cn1 [Compound 196] | 6.00 to 6.70
CN1CCOc2cc(NC(=O)C(=O)Nc3c[nH]c4cc(F)c(F)cc34)cnc21 [Compound 219] | 5.30 to 6.00
O=C(Nc1c[nH]c2cc(F)c(F)cc12)C(=O)NC1CCC2(CCCC2)C1 (stereo not drawn) [Compound 279] | 6.00 to 6.70
CC(CNC(=O)C(=O)Nc1c[nH]c2cc(F)c(F)cc12)Oc1ccc(C(F)(F)F)cc1 (stereo not drawn) [Compound 158, N1-(5,6-difluoro-1H-indol-3-yl)-N2-(2-(4-(trifluoromethyl)phenoxy)propyl) oxalamide] | 6.00 to 6.70
O=C(NCc1ccc(F)c(OC(F)(F)F)c1)C(=O)Nc1c[nH]c2cc(F)c(F)cc12 [Compound 131, N1-(5,6-difluoro-1H-indol-3-yl)-N2-(4-fluoro-3-(trifluoromethoxy)benzyl) oxalamide] | 6.00 to 6.70
COc1cc(NC(=O)C(=O)Nc2c[nH]c3cc(F)c(F)cc23)ccc1N1CCCC1 [Compound 293, N-(5,6-difluoro-1H-indol-3-yl)-N′-[3-methoxy-4-(pyrrolidin-1-yl)phenyl] ethanediamide] | 6.00 to 6.70
CC(COc1ccc(C(F)(F)F)cc1)NC(=O)C(=O)Nc1c[nH]c2cc(F)c(F)cc12 (stereo not drawn) [Compound 276, N-(5,6-difluoro-1H-indol-3-yl)-N′-{1-[4-(trifluoromethyl)phenoxy]propan-2-yl}ethanediamide] | 6.00 to 6.70
O=C(Nc1c[nH]c2cc(F)c(F)cc12)C(=O)NC(c1ccccc1)C(F)(F)F (single isomer, unassigned) [Compound 239, N-(5,6-difluoro-1H-indol-3-yl)-N′-(2,2,2-trifluoro-1-phenylethyl)oxalamide] | 6.00 to 6.70
O=C(Nc1c[nH]c2cc(F)c(F)cc12)C(=O)N[C@@H]1CCC[C@@H](Oc2ccc(C(F)(F)F)cc2)C1 (single isomer, unassigned) [Compound 228] | 6.00 to 6.70
O=C(Nc1c[nH]c2cc(F)c(F)cc12)C(=O)NC1CCC2(CCCC2)CC1 [Compound 314] | 6.00 to 6.70
N#Cc1ccc(OC2CCC(NC(=O)C(=O)Nc3c[nH]c4cc(F)c(F)cc34)CC2)cc1 (stereo not drawn) [Compound 270, N′-[4-(4-cyanophenoxy)cyclohexyl]-N-(5,6-difluoro-1H-indol-3-yl)ethanediamide] | 6.00 to 6.70
Cc1cc(NC(=O)C(=O)Nc2c[nH]c3cc(F)c(-c4cnn(C)c4)cc23)cnc1N1CCC(F)(F)CC1 [Compound 232] | 5.30 to 6.00
O=C(NCCC12C[C@H]3C[C@@H](C1)C[C@@H](C2)C3)C(=O)Nc1c[nH]c2cc(F)c(F)cc12 [Compound 188] | 6.00 to 6.70
O=C(Nc1c[nH]c2cc(F)c(F)cc12)C(=O)N1CCC(Oc2ccc(C(F)(F)F)cc2)CC1 [Compound 317] | 6.00 to 6.70
O=C(NCc1cccc(N2CCCCC2)c1)C(=O)Nc1c[nH]c2cc(F)c(F)cc12 [Compound 162, N1-(5,6-difluoro-1H-indol-3-yl)-N2-(3-(piperidin-1-yl)benzyl) oxalamide] | 6.00 to 6.70
O=C(Nc1c[nH]c2cc(F)c(F)cc12)C(=O)N[C@@H]1CCC[C@H](Oc2ccc(C(F)(F)F)cc2)C1 (single isomer, unassigned) [Compound 220] | 6.00 to 6.70
O=C(Nc1c[nH]c2cc(F)c(F)cc12)C(=O)NC1CCN(Cc2ccccc2)C2(CCCCC2)C1 (stereo not drawn) [Compound 256] | 5.30 to 6.00
O=C(Nc1c[nH]c2cc(F)c(F)cc12)C(=O)NC1CCC(Oc2ccc(C(F)(F)F)cn2)C1 (stereo not drawn) [Compound 221] | 6.00 to 6.70
O=C(NCC(F)(F)c1ccccc1)C(=O)Nc1c[nH]c2cc(F)c(F)cc12 [Compound 155, N1-(5,6-difluoro-1H-indol-3-yl)-N2-(2,2-difluoro-2-phenylethyl) oxalamide] | 6.00 to 6.70
O=C(NCC1(c2cccc(Cl)c2)CCOCC1)C(=O)Nc1c[nH]c2cc(F)c(F)cc12 [Compound 140] | 5.30 to 6.00
O=C(Nc1ccc(C(F)(F)F)c(Cl)c1)C(=O)Nc1c[nH]c2cc(F)c(F)cc12 [Compound 181] | 6.00 to 6.70

The remaining lines, values ahead:

pEC50 | Structure (SMILES)
6.00 to 6.70 | O=C(Nc1c[nH]c2cc(F)c(F)cc12)C(=O)NC1CCC2(CCCCC2)C1 (stereo not drawn) [Compound 280]
6.00 to 6.70 | CN(CCNC(=O)C(=O)Nc1c[nH]c2cc(F)c(F)cc12)c1ccccc1 [Compound 331]
6.00 to 6.70 | Cc1ccc(OCCNC(=O)C(=O)Nc2c[nH]c3cc(F)c(F)cc23)cc1C [Compound 147, N1-(5,6-difluoro-1H-indol-3-yl)-N2-(2-(3,4-dimethylphenoxy)ethyl)oxalamide]
6.00 to 6.70 | CC(C)(NC(=O)C(=O)Nc1c[nH]c2cc(F)c(F)cc12)c1ccc(C(F)(F)F)c(Cl)c1 [Compound 137]
6.00 to 6.70 | O=C(NC[C@@H](c1ccccc1)C(F)F)C(=O)Nc1c[nH]c2cc(F)c(F)cc12 [Compound 348]
6.00 to 6.70 | C#Cc1cc(NC(=O)C(=O)Nc2c[nH]c3cc(F)c(F)cc23)ccc1Cl [Compound 295, N′-(4-chloro-3-ethynylphenyl)-N-(5,6-difluoro-1H-indol-3-yl)ethanediamide]
6.00 to 6.70 | O=C(NCc1ccc(C(F)(F)F)nc1)C(=O)Nc1c[nH]c2cc(F)c(F)cc12 [Compound 344]
6.00 to 6.70 | Cc1ccc(CNC(=O)C(=O)Nc2c[nH]c3ccc(Br)cc23)cc1C(F)(F)F [Compound 124]
6.00 to 6.70 | O=C(Nc1c[nH]c2cc(F)c(F)cc12)C(=O)N[C@H]1C[C@H](Nc2ccc(C(F)(F)F)cn2)C1 [Compound 197]
6.00 to 6.70 | CC(C)n1cc(-c2cc3c(NC(=O)C(=O)Nc4ccc(C(F)(F)F)cc4)c[nH]c3cc2F)cn1 [Compound 341, N-(6-fluoro-5-(1-isopropyl-1H-pyrazol-4-yl)-1H-indol-3-yl)-N′-(4-(trifluoromethyl)phenyl)oxalamide]
6.00 to 6.70 | N#Cc1ccc2[nH]cc(NC(=O)C(=O)NCc3ccc(C(F)(F)F)c(Cl)c3)c2c1 [Compound 321]
6.00 to 6.70 | O=C(Nc1c[nH]c2cc(F)c(F)cc12)C(=O)NC1CCN(Cc2cccc(C(F)(F)F)c2)C1 (stereo not drawn) [Compound 336]
6.70 to 7.40 | Cc1ccc(CNC(=O)C(=O)Nc2c[nH]c3ccc(-c4cnn(CC(F)(F)F)c4)cc23)cc1OC(F)(F)F [Compound 285]
6.70 to 7.40 | C[C@H](NC(=O)C(=O)Nc1c[nH]c2cc(F)c(F)cc12)c1ccc(C(F)(F)F)cc1 (stereo in doubt) [Compound 329]
6.70 to 7.40 | O=C(Nc1c[nH]c2cc(F)c(F)cc12)C(=O)N[C@H]1CC[C@H](Oc2ccc(C(F)(F)F)cn2)CC1 [Compound 230, N-(5,6-difluoro-1H-indol-3-yl)-N′-[trans-4-[[5-(trifluoromethyl)pyridin-2-yl]oxy]cyclohexyl]ethanediamide]
6.70 to 7.40 | O=C(Nc1c[nH]c2cc(F)c(F)cc12)C(=O)N[C@@H]1CCC2(CCCCC2)C1 (stereo in doubt) [Compound 248]
6.70 to 7.40 | O=C(NCC(=O)N1CCc2ccc(C(F)(F)F)cc21)C(=O)Nc1c[nH]c2cc(F)c(F)cc12 [Compound 204]
6.70 to 7.40 | Cc1cc(NC(=O)C(=O)Nc2c[nH]c3cc(F)c(F)cc23)ccc1OC(F)(F)F [Compound 289, N-(5,6-difluoro-1H-indol-3-yl)-N′-[3-methyl-4-(trifluoromethoxy)phenyl] ethanediamide]
